# Reference: patent US8735150B2, “Methods for detecting embryonic stem cells, induced pluripotent stem cells, or cells undergoing reprogramming to produce induced pluripotent stem cells” (New York University, priority 2010, dated 2014)
# Legend:
# iPSC = test: CDy1 staining of iPSC colonies generated from Oct4-GFP transgenic mouse MEF; type: cell-based
# Experimental: The retroviral packaging cell, PlatE cell, was maintained in DMEM containing 10% FBS, 100 U/ml penicillin, 100 μg/ml streptomycin, 10 μg/mlblasticidin S, and 1 μg/ml puromycin. For the generation of retroviruses, 40 μg of each retroviral vector expressing each mouse Oct4, Sox2, Klf4, and c-Myc was transfected together using Lipofectamine™ 2000 (Invitrogen, Carlsbad, Calif.) into PlatE cells plated at a density of 8×10^6 cells/10 cm cell culture dish and cultured overnight in DMEM containing 10% FBS. Medium was changed five hours after transfection to normal maintenance medium and incubated further in a humidified atmosphere of 5% CO2 and 95% air at 37° C. Culture supernatant was harvested 48 hours after transfection, filtered through a 0.45 μm syringe filter, concentrated by using amicon ultra-15 Centrifugal filter units (Millipore, Billerica, Mass.), and stored at −80° C. until use. For reprogramming, MEFs prepared from E13.5 B6; CBA-Tg(Pou5f1-EGFP)2Mnn/J mouse (Jackson Laboratory, Bar Harbor, Me.) embryo were infected with retrovirus mixture eight hours later. Polybrene (Sigma-Aldrich, St. Louis, Mo.) was added at a concentration of 10 μg/ml to increase virus adsorption. Infected MEFs were harvested 48 hours later by trypsinization and plated onto mytomycin C treated MEF feeder cells. The cells were maintained in mESC culture medium that was changed every day until designated time points.
# The reprogramming was performed in a 6-well culture dish by retroviral introduction of four transcriptions factors: Oct4, Sox2, Klf4, and c-Myc (Takahashi et al., “Induction of Pluripotent Stem Cells from Mouse Embryonic and Adult Fibroblast Cultures by Defined Factors,” Cell, 126(4):663-676 (2006), which is hereby incorporated by reference in its entirety). iPSC generation was verified by GFP expression, alkaline phosphatase assay, and immunostaining of SSEA-1 at 17 days post infection (“dpi”). […] When the 155 colonies grown in 6-well plate cells were treated with CDy1 at 17 dpi, 101 colonies (65%) were both CDy1 and GFP positive, 26 (17%) were CDy1-only positive, 4 (3%) were GFP-only positive and 24 (15%) were negative both for CDy1 and GFP, despite the fact that the morphology of the colonies was indistinguishable (FIG. 9).
# In a cell culture treated with CDy1 at an earlier time point of iPSC generation (10 dpi), increasing numbers of CDy1-stained colonies started to show GFP signal during the following days (FIG. 10A). To perform a more systematic analysis, the cells were stained with CDy1 at 2 dpi (i.e., when iPSC was not distinguishable by any means) and the CDy1 and GFP signals were tracked by daily acquisition of cell images using an ImageXpress^MICRO system. At 10 dpi, when small colonies started to appear, 342 CDy1-positive but GFP-negative colonies were selected and their GFP expression was followed until 25 dpi. An increasing number of colonies started to express GFP during this period, and 338 (99%) out of the 342 tracked colonies were GFP-positive at 25 dpi (FIG. 10B).
# mitochondria in mESC = test: Co-staining of mESC with CDy1 and MITOTRACKER Deep Red 633; type: cell-based, mouse
# Experimental: In this experiment mESC were incubated with 500 nM CDy1, 200 nM MITOTRACKER® Deep Red 633, and 4 mg/ml Hoechst for 30 minutes at 37° C. and washed with PBS two times. The cells were mounted on slide glass and the images were taken using a Nikon ECLIPSE Ti fluorescence microscope equipped with a ×100 objective lens (Pearson's correlation coefficient=0.88; scale bar, 5 μm).
# In a previous study (Kim et al., “Control of Muscle Differentiation by a Mitochondria-Targeted Fluorophore,” J. Am. Chem. Soc. 132(2): 576-579 (2009), which is hereby incorporated by reference in its entirety), CDy1 was among the compounds targeting mitochondria. To examine whether CDy1 localizes in mitochondria in mESC, the cells were co-stained with CDy1 and a mitochondria-staining commercial dye MITOTRACKER® Deep Red 633. […] In addition to the mitochondrial membrane potential which sequesters many cationic rhodamine and rosamine compounds, other factors such as stem cell specific proteins appear to play roles in the entry and retainment of CDy1 rendering it stem cell selective.
# [1] = test system: cells undergoing reprogramming to induced pluripotent stem cells (Oct4-GFP transgenic MEF); test: FACS isolation of cells undergoing reprogramming with CDy1 and counting of GFP-positive iPS cell colonies; type: cell-based, mouse; conditions: sorted by FACS at 10 dpi, 7% of total cell number
# Experimental: Oct4-GFP transgenic mouse embryonic fibroblasts (MEF) transfected with retrovirus expressing Oct4, Sox2, Klf4, and c-Myc were incubated with CDy1 at 10 days post infection (dpi). The cells were harvested using trypsin-EDTA and CDy1^bright and CDy1^dim cells defined as 7% of the total cell number at each end were collected by FACS, plated in culture media, and allowed to grow until 20 dpi for counting the number of induced pluripotent stem (“iPS”) cell colonies which were identified by GFP signal (FIG. 15A).
# Among the many cell colonies observed in the bright field images, GFP signal was detected from some of them by fluorescence excitation (FIG. 15B).
# mESC [2] = test: Flow cytometry of mESC and MEF incubated separately with rosamine hit compounds (secondary screening); type: cell-based, mouse; conditions: 500 nM
# Experimental: FIG. 5 is a table of flow cytometry results, which show the structure-cell selectivity relationship in CDy1 analogues. The ratios of mESC to MEF fluorescence mean values obtained from flow cytometry were used for cell selectivity analysis. The cells were incubated with 500 nM of each compound for one hour and washed with phosphate buffered saline (PBS) for flow cytometry.
# MEFs and mESCs were cultured in 60 mm culture dishes for 24 hours in the presence of 500 nM of hit compounds including CDy1. The cells were harvested by trypsin treatment, washed with PBS, and resuspended in PBS. The fluorescence intensity of the cells was measured with flow cytometry (BD™ LSR II) with PE-Texas Red filter (excitation at 488 nm, emission at 615 nm). The dot plot images for each cell type were overlaid using FlowJo7 (Tree Star Inc., Ashland, Oreg.). […]
# For a high-throughput screening, mESC and MEF feeder cells were incubated with 280 rosamine compounds at a concentration of 500 nM in 384-well microplates. After 0.5 hours, 24 hours, and 48 hours, TRITC fluorescence and bright field images were taken using an ImageXpress^MICRO imaging system. […] As a secondary screening, mESC and MEF were incubated separately with each of the hit compounds and these were analyzed using flow cytometry (see work flow set out in FIGS. 1A-1B; results shown in FIGS. 2A-2C and FIG. 3).
# [3] = test system: Oct4-GFP transgenic MEF transfected with Oct4, Sox2, Klf4 and c-Myc; test: CDy1 staining of cells at early stages of reprogramming (fluorescence microscopy); type: cell-based, mouse; conditions: incubated for one hour
# Experimental: Oct4-GFP transgenic MEF transfected with retrovirus expressing Oct4, Sox2, Klf4, and c-Myc were incubated with CDy1 at 3, 5, 7, and 9 dpi for one hour.
# After excess CDy1 was washed out by replacing culture medium, fluorescent cell images were taken using fluorescence microscope.
# At 3 and 5 dpi, any dramatic morphological differences between the cells were not observed by phase contrast bright field microscopy (FIG. 16).
# mESC [4] = test: FACS isolation of mESC from a MEF and mESC mixture stained with CDy1; Nanog RT-PCR and colony forming assay; type: cell-based, mouse
# Experimental: MEFs and mESCs were cultured in 60 mm culture dishes for 24 hours in the presence of 500 nM of hit compounds including CDy1. The cells were harvested by trypsin treatment, washed with PBS, and resuspended in PBS. The fluorescence intensity of the cells was measured with flow cytometry (BD™ LSR II) with PE-Texas Red filter (excitation at 488 nm, emission at 615 nm). The dot plot images for each cell type were overlaid using FlowJo7 (Tree Star Inc., Ashland, Oreg.). For FACS, MEF and mESC were cultured in the same dish and the sample was prepared as described above for flow cytometry. The cells were gated into SSC^low CDy1^bright and SSC^high CDy1^dim regions and were collected using a FACS machine (BD FACS Aria™, BD Biosciences, Franklin Lakes, N.J.).
# Total RNA was isolated from cells using RNeasy Mini Kit (QIAGEN Inc.) according to the manufacturer's instruction. cDNA was synthesized from 1 μg of total RNA using REVERTAID™ H Minus First strand cDNA Synthesis kit (Fermentas, Glen Burnie, Md.) and amplified by PCR using GOTAQ® Green Master Mix (Promega, Fitchburg, Wis.). The PCR conditions were as follows: 30 seconds denaturation at 95° C., 30 seconds annealing at 60° C., and a final 30 seconds of extension at 72° C. The sequences of primers used in this study are: Nanog (GenBank Accession No. NM_028016.1): sense 5′-[…]-3′ (SEQ ID NO:1), antisense 5′-[…]-3′ (SEQ ID NO:2); GAPDH (GenBank Accession No. XM—001473443.1): sense 5′-[…]-3′ (SEQ ID NO:3), antisense 5′-[…]-3′ (SEQ ID NO:4). The PCR products obtained after 25 cycles were resolved on 1% agarose gels, visualized by ethidium bromide staining, and the images were taken using a Gel Logic 200 Imaging System (Kodak, Rochester, N.Y.).
# To evaluate the capability of CDy1 to isolate ESC from a mixed cell population, a MEF and mESC mixture was stained with CDy1, the mixed cells were gated into SSC^low CDy1^bright and SSC^high CDy1^dim regions, and 40,000 cells were collected by FACS from each gate for a stem cell marker Nanog gene expression analysis and colony forming assay. […]
# [5] = 40,000 cells collected by FACS, three days culture
compound,measurement,setting,value
CCCCN(CCCC)c1ccc2c(-c3cccc(CN4CCOCC4)c3)c3ccc(=N)cc-3oc2c1 [CDy1],colonies negative both for CDy1 and GFP (percent),"iPSC; 17 dpi, of 155 colonies",15%
same,colonies GFP-positive at 25 dpi (percent),iPSC; of 342 CDy1-positive but GFP-negative colonies selected at 10 dpi,99%
same,colonies GFP-positive at 25 dpi (number),"iPSC; of 342 CDy1-positive but GFP-negative colonies selected at 10 dpi, stained at 2 dpi",338
same,staining pattern compared with MITOTRACKER staining,mitochondria in mESC,very similar to MITOTRACKER® staining
same,Pearson's correlation coefficient of CDy1 and MITOTRACKER co-localization,"mitochondria in mESC; 500 nM CDy1, 200 nM MITOTRACKER Deep Red 633, 30 minutes at 37° C.",0.88
same,GFP-positive iPS cell colonies from CDy1dim cells,[1],no colonies
same,GFP-positive iPS cell colonies per well from CDy1bright cells,[1],51 colonies per well
same,higher fluorescence intensity in mESC than in MEF (ratio of mESC to MEF fluorescence mean values),mESC [2],12.2 fold
same,mESC selectivity (in words),mESC [2]; mESC vs MEF,most selective for mESCs among the 20 hit compounds
same,staining at 3 and 5 dpi,[3],scattered single cells stained
same,staining at 7 and 9 dpi,[3],some of the clusters were stained
same,number of colonies from SSChigh CDy1dim cells,mESC [4]; [5],6
same,number of colonies from SSClow CDy1bright cells,mESC [4]; [5],604
same,Nanog expression in SSClow CDy1bright cells versus SSChigh CDy1dim cells,mESC [4]; RT-PCR,much higher
